What all share (type): cell-based
The subject of test [1] is Fusarium oxysporum f. sp. lycopersici FOL 3 race 2. The experiment in a line: MIC, antifungal growth inhibition in microtiter plates (PDB). Conditions: Fo, 22°C, seven days, OD 600 nm, lowest concentration with no growth, given as interval of tested concentrations, three replicates, experiment repeated twice. As to the method: (§1) The following plant pathogenic fungal strains were used: Penicillium expansum EPS26 (Institut de Tecnologia Agroalimentària, Universitat de Girona, Spain) and Fusarium oxysporum f. sp. lycopersici FOL 3 race 2 (ATCC 201829, American Type Culture Collection,Virginia, EEUU). Strains were cultured on potato dextrose agar (PDA) plates (Difco). Conidia from P. expansum and microconidia from F. oxysporum were obtained from 5–7 day-old agar Potato Dextrose (PDA) cultures after growth at 25°C. Inoculum was prepared by scraping spore material from culture surfaces with a cotton swab and resuspending it in distilled water containing 0.5‰ of tween 80. The suspensions were filtered through Miracloth (Merk, Millipore) and the concentration of conidia was determined using a hemacytometer and adjusted to 10^4 conidia mL^-1 for F. oxysporum and to 10^3 conidia mL^-1 for P. expansum.
(§2) Lyophilized peptides were solubilized in sterile Milli-Q water to a final concentration of 1 mM and filter sterilized through a 0.22-μm pore filter. […] For antibacterial activity 20 μL of each dilution were mixed in a microtiter plate well with 20 μL of the corresponding suspension of the bacterial indicator, 160 μL of Trypticase Soy Broth (TSB) (BioMèrieux, France) to a total volume of 200 μL. For antifungal activity 20 μL of each stock solution were mixed in a microtiter plate well with 80 μL of the corresponding suspension of the fungal pathogen and 100 μL of double concentrated Potato Dextrose Broth (PDB) to a total volume of 200 μL containing 0.003% w/v of chloramphenicol to prevent bacterial contamination.
(§3) Three replicates for each combination of strain, compound and concentration were used. Microbial growth was determined by optical density measurement at 600 nm (Bioscreen C, Labsystem, Helsinki, Finland). For antibacterial activity microplates were incubated at 25°C with 20 s shaking before hourly absorbance measurement for 48 h. For antifungal activity microplates were incubated at 22°C with 1 min shaking before absorbance measurement that were done every two hours during seven days. The experiment was repeated twice. The MIC was taken as the lowest compound concentration with no growth at the end of the experiment.

Test [2] relates to Penicillium expansum EPS26. The description is as above. The note with it: Pe, 22°C, seven days, OD 600 nm, lowest concentration with no growth, given as interval of tested concentrations, three replicates, experiment repeated twice. As to the method:
as §1, §2, §3

In test [3] the test system is Xanthomonas axonopodis pv. vesicatoria 2133–2. In words: MIC, growth inhibition in microtiter plates (TSB). Conditions: Xav, 25°C, 48 h, OD 600 nm, lowest concentration with no growth, given as interval of tested concentrations, three replicates, experiment repeated twice.
From the text: (§4) The following plant pathogenic bacterial strains were used: Erwinia amylovora PMV6076 (Institut National de la Recherche Agronomique, Angers, France), Pseudomonas syringae pv. syringae EPS94 (Institut de Tecnologia Agroalimentària, Universitat de Girona, Spain), Xanthomonas axonopodis pv. vesicatoria 2133–2, Pseudomonas syringae pv. actinidiae Psa3700.1.1, Xanthomonas fragariae Xf349-9A (Instituto Valenciano de Investigaciones Agrarias, Valencia, Spain), and Xanthomonas arboricola pv. pruni CFBP5563 (Collection Française de Bactéries associées aux Plantes, Angers, France). All bacteria except for X. fragariae were stored in Luria Bertani (LB) broth supplemented with glycerol (20%) and maintained at -80°C. For X. fragariae, Medium B [46] was used instead of LB. E. amylovora, X. arboricola pv. pruni, P. syringae pv. syringae and P. syringae pv. actinidiae were scrapped from the agar media after growing for 24 h at 25°C, and X. axonopodis pv. vesicatoria and X. fragariae after growing for 48 h at 25°C. The cell material was suspended in sterile water to obtain a suspension of 10^8 CFU mL^-1.
as §2, §3

Test [4] concerns Pseudomonas syringae pv. actinidiae Psa3700.1.1. The experiment in a line: MIC, growth inhibition in microtiter plates (TSB). Conditions: Psa, 25°C, 48 h, OD 600 nm, lowest concentration with no growth, given as interval of tested concentrations, three replicates, experiment repeated twice.
From the text: as §4, §2, §3

The subject of test [5] is Xanthomonas fragariae Xf349-9A. The experiment in a line: MIC, growth inhibition in microtiter plates (TSB). The note with it: Xf, 25°C, 48 h, OD 600 nm, lowest concentration with no growth, given as interval of tested concentrations, three replicates, experiment repeated twice.
From the text: as §4, §2, §3

The subject of test [6] is Pseudomonas syringae pv. syringae EPS94. In words: MIC, growth inhibition in microtiter plates (TSB). The note with it: Pss, 25°C, 48 h, OD 600 nm, lowest concentration with no growth, given as interval of tested concentrations, three replicates, experiment repeated twice.
From the text: as §4, §2, §3

For test [7], the system named is Xanthomonas arboricola pv. pruni CFBP5563. In words: MIC, growth inhibition in microtiter plates (TSB). The note with it: Xap, 25°C, 48 h, OD 600 nm, lowest concentration with no growth, given as interval of tested concentrations, three replicates, experiment repeated twice.
From the text: as §4, §2, §3

Test [8] deals with Erwinia amylovora PMV6076. The experiment in a line: MIC, growth inhibition in microtiter plates (TSB). Conditions: Ea, 25°C, 48 h, OD 600 nm, lowest concentration with no growth, given as interval of tested concentrations, three replicates, experiment repeated twice.
From the text: as §4, §2, §3

By MIC is commonly meant the smallest concentration in the dilution series that meets the test's criterion for growth inhibition.

With `CCCCCCCCCCCC(=O)NCCCC[C@H](NC(=O)[C@H](CCCCN)NC(=O)[C@H](CCCCN)NC(=O)[C@H](Cc1ccccc1)NC(=O)[C@H](CC(C)C)NC(=O)[C@H](CCCCN)NC(=O)[C@H](CCCCN)NC(C)=O)C(=O)N[C@@H](CC(C)C)C(=O)N[C@@H](CCCCN)C(=O)N[C@@H](Cc1ccc(O)cc1)C(=O)N[C@@H](CC(C)C)C(N)=O` [BP398, Ac-KKLFKKK(COC11H23)LKYL-NH2], the MIC is 6.2 to 12.5 µM in test [1]; more than 25 µM in test [2]; 0.8 to 1.6 µM in test [3]; 3.1 to 6.2 µM in test [4]; 3.1 to 6.2 µM in test [5]; 3.1 to 6.2 µM in test [6]. The minimum inhibitory concentration (MIC) is 1.6 to 3.1 µM in test [7] and more than 25 µM in test [8].

With `CCCCCCCCCCCC(=O)NCCCC[C@H](NC(=O)[C@H](CCCCN)NC(=O)[C@H](Cc1ccccc1)NC(=O)[C@H](CC(C)C)NC(=O)[C@H](CCCCN)NC(=O)[C@H](CCCCN)NC(C)=O)C(=O)N[C@H](C(=O)N[C@@H](CC(C)C)C(=O)N[C@@H](CCCCN)C(=O)N[C@@H](Cc1ccc(O)cc1)C(=O)N[C@@H](CC(C)C)C(N)=O)[C@@H](C)CC` [BP397, Ac-KKLFKK(COC11H23)ILKYL-NH2], the minimum inhibitory concentration (MIC) in test [1] was 6.2 to 12.5 µM; in test [2], 12.5 to 25 µM; in test [3], 6.2 to 12.5 µM; in test [4], more than 25 µM; in test [5], 1.6 to 3.1 µM; in test [6], more than 25 µM. In addition, the minimal inhibitory concentration (MIC) in test [7] was 3.1 to 6.2 µM; in test [8], more than 25 µM.

Regarding `CCCCCCCCCCCC(=O)NCCCC[C@H](NC(=O)[C@H](CCCCN)NC(C)=O)C(=O)N[C@@H](CC(C)C)C(=O)N[C@@H](Cc1ccccc1)C(=O)N[C@@H](CCCCN)C(=O)N[C@@H](CCCCN)C(=O)N[C@H](C(=O)N[C@@H](CC(C)C)C(=O)N[C@@H](CCCCN)C(=O)N[C@@H](Cc1ccc(O)cc1)C(=O)N[C@@H](CC(C)C)C(N)=O)[C@@H](C)CC` [BP393, Ac-KK(COC11H23)LFKKILKYL-NH2], the MIC in test [1] is 1.6 to 3.1 µM; in test [2] it was more than 25 µM; in test [3], 3.1 to 6.2 µM; in test [4], 6.2 to 12.5 µM; in test [5], 3.1 to 6.2 µM; in test [6], 12.5 to 25 µM. Besides, the minimal inhibitory concentration (MIC) lay within 3.1 to 6.2 µM in test [7] and 12.5 to 25 µM in test [8].

For `CCCCCCCCCCCC(=O)NCCCC[C@H](NC(C)=O)C(=O)N[C@@H](CCCCN)C(=O)N[C@@H](CC(C)C)C(=O)N[C@@H](Cc1ccccc1)C(=O)N[C@@H](CCCCN)C(=O)N[C@@H](CCCCN)C(=O)N[C@H](C(=O)N[C@@H](CC(C)C)C(=O)N[C@@H](CCCCN)C(=O)N[C@@H](Cc1ccc(O)cc1)C(=O)N[C@@H](CC(C)C)C(N)=O)[C@@H](C)CC` [BP392, Ac-K(COC11H23)KLFKKILKYL-NH2], the MIC in test [1] is 6.2 to 12.5 µM; in test [2], more than 25 µM; in test [3], 3.1 to 6.2 µM; in test [4], more than 25 µM; in test [5] it was 0.8 to 1.6 µM; in test [6], more than 25 µM. Moreover, the MIC in test [7] is 3.1 to 6.2 µM; in test [8], more than 25 µM.

With `CCCCCC(=O)NCCCC[C@H](NC(=O)[C@H](CCCCN)NC(=O)[C@H](Cc1ccccc1)NC(=O)[C@H](CC(C)C)NC(=O)[C@H](CCCCN)NC(=O)[C@H](CCCCN)NC(C)=O)C(=O)N[C@H](C(=O)N[C@@H](CC(C)C)C(=O)N[C@@H](CCCCN)C(=O)N[C@@H](Cc1ccc(O)cc1)C(=O)N[C@@H](CC(C)C)C(N)=O)[C@@H](C)CC` [BP373, Ac-KKLFKK(COC5H11)ILKYL-NH2], the minimal inhibitory concentration (MIC) in test [1] is 0.4 to 0.8 µM; in test [2] it was 3.1 to 6.2 µM; in test [3], 6.2 to 12.5 µM; in test [4] it was 3.1 to 6.2 µM; in test [5] it was 3.1 to 6.2 µM; in test [6], 6.2 to 12.5 µM. Besides, the minimal inhibitory concentration (MIC) in test [7] and in test [8] was 3.1 to 6.2 µM in each case.

On to `CCCCCC(=O)NCCCC[C@H](NC(C)=O)C(=O)N[C@@H](CCCCN)C(=O)N[C@@H](CC(C)C)C(=O)N[C@@H](Cc1ccccc1)C(=O)N[C@@H](CCCCN)C(=O)N[C@@H](CCCCN)C(=O)N[C@H](C(=O)N[C@@H](CC(C)C)C(=O)N[C@@H](CCCCN)C(=O)N[C@@H](Cc1ccc(O)cc1)C(=O)N[C@@H](CC(C)C)C(N)=O)[C@@H](C)CC` [BP368, Ac-K(COC5H11)KLFKKILKYL-NH2], for which the minimal inhibitory concentration (MIC) in test [1] is 0.8 to 1.6 µM; in test [2], 1.6 to 3.1 µM; in test [3] it was 3.1 to 6.2 µM; in test [4] it was 6.2 to 12.5 µM; in test [5], 6.2 to 12.5 µM; in test [6], 6.2 to 12.5 µM. Also, the minimal inhibitory concentration (MIC) in test [7] was in the range of 3.1 to 6.2 µM; in test [8] it was 6.2 to 12.5 µM.

As for `CCCCCCCCCCCC(=O)NCCCC[C@H](NC(=O)[C@H](CCCCN)NC(=O)[C@H](CC(C)C)NC(=O)[C@@H](NC(=O)[C@H](CCCCN)NC(=O)[C@H](CCCCN)NC(=O)[C@H](Cc1ccccc1)NC(=O)[C@H](CC(C)C)NC(=O)[C@H](CCCCN)NC(=O)[C@H](CCCCN)NC(C)=O)[C@@H](C)CC)C(=O)N[C@@H](CC(C)C)C(N)=O` [BP401, Ac-KKLFKKILKK(COC11H23)L-NH2], the minimal inhibitory concentration (MIC) lay in the range of 6.2 to 12.5 µM in test [1]; 12.5 to 25 µM in test [2]; 0.8 to 1.6 µM in test [3]; 6.2 to 12.5 µM in test [4]; 3.1 to 6.2 µM in test [5]; 6.2 to 12.5 µM in test [6]. The figures for the minimal inhibitory concentration (MIC) in test [7] and in test [8] were 1.6 to 3.1 µM and more than 25 µM, respectively.

In the case of `CCCC(=O)NCCCC[C@H](NC(=O)[C@H](CC(C)C)NC(=O)[C@@H](NC(=O)[C@H](CCCCN)NC(=O)[C@H](CCCCN)NC(=O)[C@H](Cc1ccccc1)NC(=O)[C@H](CC(C)C)NC(=O)[C@H](CCCCN)NC(=O)[C@H](CCCCN)NC(C)=O)[C@@H](C)CC)C(=O)N[C@@H](Cc1ccc(O)cc1)C(=O)N[C@@H](CC(C)C)C(N)=O` [BP388, Ac-KKLFKKILK(COC3H7)YL-NH2], the MIC in test [1] fell in the range of 0.8 to 1.6 µM; in test [2] it was 6.2 to 12.5 µM; in test [3], 1.6 to 3.1 µM; in test [4], 6.2 to 12.5 µM; in test [5], 1.6 to 3.1 µM; in test [6], 6.2 to 12.5 µM. In addition, the minimal inhibitory concentration (MIC) in test [7] and in test [8] was 3.1 to 6.2 µM each time.

These data come from paper PMC6063448, “Antimicrobial activity of linear lipopeptides derived from BP100 towards plant pathogens” (PLoS ONE, 2018).
